The source of these data is patent US11666558B2, “Methods of treating intraocular pressure with activators of Tie-2” (EyePoint Pharmaceuticals, Inc., priority 2015, dated 2023).

Where two headings read alike, the source gives them in different places.

Data set [1] in a line: Plasma concentrations and pharmacokinetic parameters after topical ocular, subcutaneous and intravitreal administration. Type of data set: in vivo, New Zealand White rabbits. Conditions: plasma, plasma; for AUC(0-t): read-out: AUClast (± SE); for concentration at 0.5 hr: 0.50 hr. As to the method:
To measure the concentration of Compound 1 in plasma and ocular tissues following topical ocular, subcutaneous, and intravitreal administration, New Zealand White rabbits were administered Compound 1, and plasma and ocular samples were collected at pre-determined time points. Compound 1 formulations were prepared fresh on each day of dosing.
New Zealand White rabbits weighing 2.5 to 3.5 kg were used on this study. Rabbits were housed one per cage. Animals were not fasted and only healthy animals with no ocular illness were used. Two rabbits per group were sacrificed at each of four ocular tissue sampling time points for a total of eight rabbits per group.
Animals were anesthetized for ocular (topical) and intravitreal dosing following the 12IA7 IACUC protocol. Each rabbit received a bolus dose of test formulation either via topical ocular administration 3 times daily on Days 1 and 2 (at 0, 6, and 12 hours), and once on Day 3 (at 0 hours) into both eyes; via intravitreal administration into both eyes once on Day 1 (at 0 hours); or via subcutaneous administration 2 times daily on Days 1 and 2 (at 0 and 8 hours) and once daily on Day 3 (at 0 hours). Doses were given within an approximately 1 hour window each day where applicable.
Each blood sample was collected on Day 3 post dose at pre-determined time points from the rabbits via an ear vessel and placed into chilled polypropylene tubes containing sodium heparin as an anticoagulant. Samples were spun by centrifuge at 4° C. and 3,000×g for 5 minutes. Samples were maintained chilled throughout processing. Each plasma sample was placed on dry ice and stored in a freezer at −60° C. to −80° C. pending bioanalysis.
An LC-MS/MS method was developed for the determination of Compound 1 in rabbit aqueous tissues (plasma, aqueous and vitreous humor) and solid ocular tissue samples. A pre-study standard curve was analyzed to determine the specificity, range, and lower limit of quantitation of the method. Plasma and tissue homogenate study samples were extracted and analyzed. All the samples were treated identically to the standards.
One eight-point standard curve was used in each analytical batch. To be accepted, each batch must have had at least five of eight standards with accuracy within ±20% of nominal, except at the lower limit of quantification (LLOQ), where ±25% was acceptable.
Pharmacokinetic parameters were calculated from the time course of the plasma concentration. The maximum plasma concentration (Cmax) and time to the maximum plasma drug concentration (Tmax) were the observed values for each concentration-time profiles. The area under the plasma drug concentration-time curve (AUClast, with last being from time 0 to the last quantifiable point) was calculated using the trapezoidal formula. The mean residence time MRTlast was calculated as a ratio of AUMClast (area under the first movement curve) to AUClast.

Data set [2] is described as follows: In vitro diffusion across rabbit cornea and sclera in Franz cell. Type of data set: in vitro ADME. Particulars: 1.5% of the sodium salt with 5% HPβCD in 50:50 D5W:sterile water.
The test system of another data set is intraocular pressure. Nature of the data set: Intraocular pressure change from baseline, Compound 1 BID at varying doses, 28 Day EOT (FIG. 1). Type of data set: in vivo, human. Conditions: doses greater than 15 mg BID, patients with diabetic macular edema. As to the method: The difference in IOP was determined at the end of the trial, which was 28 days after treatment began (28 Day EOT). Changes in IOP were determined both in the study eye and the fellow eye.

[3] abbreviates: New Zealand White, rabbit, other: intravitreal, 1.54 mg/kg, intravitreal 2.5 mg/eye (~1.54 mg/kg), suspension.
Where [4] appears, read: New Zealand White, rabbit, other: intravitreal, 2.5 mg, intravitreal 2.5 mg/eye (~1.54 mg/kg), suspension.
[5] abbreviates: New Zealand White, rabbit, other: intravitreal, 2.5 mg/eye, intravitreal 2.5 mg/eye (~1.54 mg/kg), suspension, read-out: plasma Average.
The mark [6] stands for this setting: New Zealand White, rabbit, other: intravitreal, 2.5 mg/eye, intravitreal 2.5 mg/eye (~1.54 mg/kg), suspension, read-out: plasma Conc., individual rabbit.
[7] abbreviates: New Zealand White, rabbit, sc, 5 mg/kg, subcutaneous 5 mg/kg/dose, suspension.
[8] abbreviates: New Zealand White, rabbit, subcutaneous, 5 mg/kg/dose, subcutaneous 5 mg/kg/dose, suspension, read-out: plasma Average.
Where [9] appears, read: New Zealand White, rabbit, subcutaneous, 5 mg/kg/dose, subcutaneous 5 mg/kg/dose, suspension, read-out: plasma Conc., individual rabbit.
[10] abbreviates: intravitreal suspension, normalized by 1.54 mg/kg.
Where [11] appears, read: subcutaneous suspension, normalized by 5 mg/kg.

As for `COC(=O)N[C@@H](Cc1ccccc1)C(=O)N[C@@H](Cc1ccc(NS(=O)(=O)O)cc1)c1csc(-c2cccs2)n1` [Compound 1 free acid], the AUC(0-inf) (commonly total exposure, with the tail of the curve extrapolated) worked out at 746 ng·h/mL in data set [1] (setting [3]), 746 ng·h/mL in data set [1] (setting [4]) and 1200 ng·h/mL in data set [1] (setting [7]). The Cmax (in general, the highest concentration seen after dosing) in data set [1] (setting [3]) was 25.3 ng/mL; in data set [1] (setting [4]), 25.3 ± 9.3 ng/mL; in data set [1] (setting [7]) it was 395 ± 170 ng/mL. Also, the MRT last (commonly the average time that molecules of a dose stay in the body) worked out at 19.1 h in data set [1] (setting [3]), 19.1 h in data set [1] (setting [4]) and 1.58 h in data set [1] (setting [7]). The half-life (in general, the time in which the quantity being followed falls by half) was 16.5 h in data set [1] (setting [3]), 16.5 h in data set [1] (setting [4]) and 2.12 h in data set [1] (setting [7]). Also, the AUC(0-t) in data set [1] (setting [3]) is 707 ng·h/mL; in data set [1] (setting [4]) it was 707 ± 53.1 ng·h/mL; in data set [1] (setting [7]), 864 ± 69 ng·h/mL. The Tmax – broadly, the time from dosing to the highest level – in data set [1] (New Zealand White, rabbit, other: intravitreal, 1.54 mg/kg, intravitreal 2.5 mg/eye (~1.54 mg/kg), suspension, read-out: tmax) is 1 h; in data set [1] (New Zealand White, rabbit, other: intravitreal, 2.5 mg, intravitreal 2.5 mg/eye (~1.54 mg/kg), suspension, read-out: tmax) it was 1 h; in data set [1] (New Zealand White, rabbit, sc, 5 mg/kg, subcutaneous 5 mg/kg/dose, suspension, read-out: tmax) it was 0.25 h; in data set [1] (New Zealand White, rabbit, sc, 5 mg/kg, subcutaneous administration, suspension, read-out: Mean plasma Tmax (converted)) it was 0.25 h. Moreover, in data set [1] (New Zealand White, rabbit, other: intravitreal, 2.5 mg/eye, intravitreal 2.5 mg/eye (~1.54 mg/kg), suspension, 1.0 hr, read-out: plasma Average), the concentration at 1 h was 25.3 ng/mL. Besides, the values for the concentration at 3 h in data set [1] (setting [5]) and in data set [1] (setting [6]) were 24.4 ng/mL and 28.4 ng/mL, respectively. Moreover, the values for the concentration at 6 h in data set [1] (setting [5]) and in data set [1] (setting [6]) were 23.1 ng/mL and 22 ng/mL, respectively. The concentration at 24 h in data set [1] (setting [5]) came out at 12.3 ng/mL; in data set [1] (setting [6]), 9.96 ng/mL. Also, the concentration at 48 h in data set [1] (setting [5]) came to 3.63 ng/mL; in data set [1] (setting [6]), 2.69 ng/mL. Moreover, the figures for the concentration at 72 h in data set [1] (setting [5]) and in data set [1] (setting [6]) were 1.65 ng/mL and 1.83 ng/mL, respectively. Besides, in data set [1] (New Zealand White, rabbit, subcutaneous, 5 mg/kg/dose, subcutaneous 5 mg/kg/dose, suspension, 0.25 hr, read-out: plasma Average), the concentration at 0.25 hr was 395 ng/mL. Moreover, the concentration at 0.5 hr in data set [1] (setting [8]) was 337 ng/mL; in data set [1] (setting [9]) it was 272 ng/mL. Also, the concentration at 1 hr in data set [1] (New Zealand White, rabbit, subcutaneous, 5 mg/kg/dose, subcutaneous 5 mg/kg/dose, suspension, 1.0 hr, read-out: plasma Average) amounted to 295 ng/mL; in data set [1] (New Zealand White, rabbit, subcutaneous, 5 mg/kg/dose, subcutaneous 5 mg/kg/dose, suspension, 1.0 hr, read-out: plasma Conc., individual rabbit) it was 300 ng/mL. The results for the concentration at 2 hr in data set [1] (setting [8]) and in data set [1] (setting [9]) were 206 ng/mL and 194 ng/mL, respectively. Also, the concentration at 4 hr in data set [1] (setting [8]) came to 110 ng/mL; in data set [1] (setting [9]), 111 ng/mL. Besides, the “Dose normalized AUClast” value worked out at 459 kg·ng·h/mL/mg in data set [1] (setting [10]); 459 ± 34.5 kg·ng·h/mL/mg in data set [1] (intravitreal suspension, normalized by 1.54 mg/kg, listed as Compound 1 (free acid)); 173 kg·ng·h/mL/mg in data set [1] (setting [11]); 173 ± 13.8 kg·ng·h/mL/mg in data set [1] (subcutaneous suspension, normalized by 5 mg/kg, listed as Compound 1 (free acid)). The “Dose normalized AUC∞” value came out at 484 kg·ng·h/mL/mg in data set [1] (setting [10]) and 240 kg·ng·h/mL/mg in data set [1] (setting [11]).

Take `COC(=O)N[C@@H](Cc1ccccc1)C(=O)N[C@@H](Cc1ccc(NS(=O)(=O)O)cc1)c1csc(-c2cccs2)n1` [Compound 1]: in data set [2], the “diffusion across rabbit cornea and sclera” value is on record as “substantial diffusion”. For the same compound, in the data set on intraocular pressure, the “intraocular pressure (IOP) relative to pre-treatment baseline” value is on record as “decreased IOP”.
